# Laboratory results taken from patent publication US8048896B2, “Methods for inhibiting and breaking AGE complex formation” (Cell Viable Corporation, priority 2005, dated 2011).
# What was measured:
# [1] = system: AGE crosslinks in tail tendon collagen of old diabetic rats; assay: Acid solubility of tail tendon collagen treated with AGE-breakers; format: biochemical, rat; conditions: FIG. 2; particularly at 1.0 and 10 mM concentrations
# Experimental: (§1) The effects of these compounds on AGE crosslinks that form in vivo in tail tendon collagen of old diabetic rats were determined. Non-diabetic rats served as controls. P values were calculated using unpaired Student's t-test. The extent of AGE crosslinking of tail tendon collagen formed in vivo was assessed by acid insolubility (FIG. 2, * P<0.05 vs. non-diabetic control; ** P<0.05 vs. diabetic control) and fluorescence measurements of collagen treated with AGE-breakers after pepsin (FIG. 3; * P<0.05 vs. diabetic control) or papain digestion (FIG. 4; * P<0.05 vs. non-diabetic control; ** P<0.05 vs. diabetic control). In each of FIGS. 2-4, panel A is LR-20, panel B is LR-23, panel C is LR-99 and panel D is LR-102.
# [2] = system: AGE crosslinks in tail tendon collagen of old diabetic rats; assay: Fluorescence of collagen treated with AGE-breakers after pepsin digestion; format: biochemical, rat; conditions: FIG. 3; particularly at 1.0 and 10 mM concentrations
# Experimental: as §1
# [3] = system: AGE crosslinks in tail tendon collagen of old diabetic rats; assay: Fluorescence of collagen treated with AGE-breakers after papain digestion; format: biochemical, rat; conditions: FIG. 4; particularly at 1.0 and 10 mM concentrations
# Experimental: as §1
# [4] = system: AGE-derived protein crosslinks; conditions: in vitro and in vivo; cited from earlier work
# [5] = molecular target: AGE formed on glycated bovine serum albumin (Bos taurus, UniProt P02769); assay: AGE-breaking ELISA on ribose-glycated bovine serum albumin; format: biochemical; conditions: FIG. 1; various concentrations, 48 hr at 37° C.; ELISA with polyclonal anti-AGE-RNAse antibodies
# AGE formed on glycated bovine serum albumin, sequence (P02769 25-607): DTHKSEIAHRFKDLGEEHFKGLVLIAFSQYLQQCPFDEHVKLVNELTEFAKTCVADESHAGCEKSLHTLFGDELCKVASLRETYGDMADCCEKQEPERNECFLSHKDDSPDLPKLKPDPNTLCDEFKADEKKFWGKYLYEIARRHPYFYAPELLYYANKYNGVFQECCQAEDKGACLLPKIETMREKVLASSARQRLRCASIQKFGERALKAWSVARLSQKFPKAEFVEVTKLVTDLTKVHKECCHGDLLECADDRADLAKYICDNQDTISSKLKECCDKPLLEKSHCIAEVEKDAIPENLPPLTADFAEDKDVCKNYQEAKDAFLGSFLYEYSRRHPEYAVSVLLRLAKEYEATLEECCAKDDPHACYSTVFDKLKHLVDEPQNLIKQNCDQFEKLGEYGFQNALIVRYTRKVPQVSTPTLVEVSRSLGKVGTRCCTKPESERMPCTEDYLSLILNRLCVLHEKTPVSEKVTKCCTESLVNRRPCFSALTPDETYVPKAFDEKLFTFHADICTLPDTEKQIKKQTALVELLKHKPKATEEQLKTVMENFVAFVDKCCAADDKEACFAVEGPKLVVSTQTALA
# Experimental: Specifically, bovine serum albumin (10 mg/mL) was incubated with 0.5 M ribose in 0.4 M phosphate buffer, pH 7.5, containing 0.02% sodium azide for 24 hr at 37° C., followed by extensive dialysis for 24 hr at 4° C. to remove excess and reversibly bound ribose. AGE formation was then initiated by incubating 0.1 mg/mL (or 1:100 dilution in phosphate buffer) of the glycated protein at 37° C. Then the AGE formed were treated with various concentrations for the compounds for 48 hr at 37° C. Aliquots from each sample were taken and diluted with 0.1 M sodium carbonate buffer to 50 μg/mL. Then 50 μl of the diluted sample was added to wells of a 96-well polystyrene plate (1.0 μg/well) and incubated overnight at room temperature. The plates were washed thrice with PBS-0.05% Tween and blocked for 1 hr with Superblock blocking buffer. The amount of AGE in each treatment was then quantified by ELISA using polyclonal anti-AGE-RNAse antibodies. Percent AGE-breaking was calculated as: (100*(mean OD wells of control-mean OD wells with compound/mean OD wells control).
Structure (SMILES),collagen solubility in weak acetic acid (acid insolubility) [1],fluorescence associated with AGE crosslinks after pepsin digestion [2],fluorescence associated with AGE crosslinks after papain digestion [3],cleavage of AGE-derived protein crosslinks [4],Percent AGE-breaking [5]
"CC(C)(Oc1ccc(NC(=O)c2ccc(Cl)cc2)cc1)C(=O)N[C@@H](CSSC[C@H](NC(=O)C(C)(C)Oc1ccc(NC(=O)c2ccc(Cl)cc2)cc1)C(=O)O)C(=O)O [LR-20, L-bis-[4-(4-chlorobenzamidophenoxyisobutyryl)cystine]]",increased collagen solubility,reduction of fluorescence,reduction of fluorescence,–,–
"CC(C)(Oc1ccc(NC(=O)Nc2cc(Cl)cc(Cl)c2)cc1)C(=O)NC1(C(=O)O)CCCCC1 [LR-23, 4-(3,5-dichlorophenylureido)phenoxyisobutyryl-1-amidocyclohexane-1-carboxylic acid]",increased collagen solubility,reduction of fluorescence,reduction of fluorescence,–,–
"CC(C)(Oc1ccc(NC(=O)Nc2cc(Cl)cc(Cl)c2)cc1)C(=O)Nc1ccc(C(=O)O)cc1 [LR-99, 4-(3,5-dichlorophenylureidophenoxyisobutyryl)-4 amino benzoic acid]",increased collagen solubility,reduction of fluorescence,reduction of fluorescence,–,–
"CC(C)(Oc1ccc(N=Cc2ccc(C=Nc3ccc(OC(C)(C)C(=O)O)cc3)cc2)cc1)C(=O)O [LR-102, 1,4-benzene-bis-(4-methyleneaminophenoxyisobutyric acid)]",increased collagen solubility,reduction of fluorescence,reduction of fluorescence,–,–
"O=C(C[n+]1ccsc1)c1ccccc1.[Br-] [N-phenacylthiazolium bromide (PTB), N-phenacylthiazolium bromide]",–,–,–,selectively cleaves AGE-derived protein crosslinks in vitro and in vivo,–
Cc1ncc(CO)c(CN)c1O [pyridoxamine],–,–,–,–,concentration dependent AGE-breaking properties
